Assay results from US20060069123A1, “Substituted dipiperidine CCR2 antagonists” (priority 2004, published 2006).
Read-outs that look alike come from different tables or passages of the source.

Legend:
CCR2 = biological target: T1, CCR2 (Homo sapiens, UniProt P41597); conditions: for Inhibition of MCP-1 Binding, percent inhibition: test concentration of 25 μM, IC50 not obtained
T1 sequence (P41597 1-360 isoform P41597-2): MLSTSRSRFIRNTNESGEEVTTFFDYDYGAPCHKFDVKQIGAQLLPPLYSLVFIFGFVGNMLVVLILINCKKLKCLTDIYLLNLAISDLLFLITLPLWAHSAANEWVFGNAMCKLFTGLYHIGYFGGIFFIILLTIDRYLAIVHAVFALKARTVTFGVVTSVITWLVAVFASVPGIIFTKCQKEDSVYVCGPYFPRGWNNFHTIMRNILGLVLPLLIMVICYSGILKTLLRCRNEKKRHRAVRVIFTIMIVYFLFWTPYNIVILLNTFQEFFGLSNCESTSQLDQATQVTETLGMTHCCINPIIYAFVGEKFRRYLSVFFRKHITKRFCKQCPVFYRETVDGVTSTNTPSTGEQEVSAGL

THP-1 cells [1] = conditions: for inhibition at 25 µM: THP-1, read-out: Inhibition of MCP-1 Induced Calcium Ion Influx, percent inhibition
THP-1 cells [2] = assay: MCP-1 Induced Chemotaxis in THP-1 Cells; assay type: cell-based; conditions: read-out: Inhibition of MCP-1 Induced Chemotaxis IC50
Description: MCP-1 Induced Chemotaxis in THP-1 Cells
MCP-1 induced chemotaxis was run in a 24-well chemotaxis chamber. MCP-1 (0.01 μg/mL) was added to the lower chamber and 100 μL of THP-1 cells (1×10^7 cell/mL) was added to the top chamber. Varying concentrations of test compound were added to the top and bottom chambers. Cells were allowed to chemotax for 3 hours at 37° C. and 5% CO2. An aliquot of the cells that had migrated to the bottom chamber was taken and counted then compared to vehicle.

[3] = Homo sapiens, THP-1, read-out: Inhibition of MCP-1 Induced Calcium Ion Influx IC50
[4] = Homo sapiens, THP-1 cells, MCP-1 0.01 μg/mL, 3 hours
[5] = Homo sapiens, THP-1, read-out: Inhibition of MCP-1 Induced Calcium Ion Influx IC50, THP-1 cells, 0.2 μM MCP-1, FLIPR
[6] = read-out: Inhibition of MCP-1 Induced Calcium Ion Influx IC50, THP-1 cells, 0.2 μM MCP-1, FLIPR
[7] = THP-1 cells, MCP-1 0.01 μg/mL, 3 hours

| IC50 (CCR2) [nM] | IC50 (THP-1 cells [1]; [3]) [nM] | Compound | also measured |
| --- | --- | --- | --- |
| 370 | 1900 | CC(=O)NCC(C1CCN(C(=O)/C=C/c2cccc(C(F)(F)F)c2)CC1)N1CCC(c2c[nH]c3ccccc23)CC1 (stereo not drawn) [Cpd 218] |  |
| 1600 |  | O=C(/C=C/c1cccc(C(F)(F)F)c1)N1CCC(C(CO)N2CCC(c3ccncc3)CC2)CC1 (stereo not drawn) [Cpd 184, (2E)-1-{4-[2-hydroxy-1-(3,4,5,6-tetrahydro-2H-[4,4′]bipyridinyl-1-yl)-ethyl]-piperidin-1-yl}-3-(3-trifluoromethyl-phenyl)-propenone] | inhibition at 25 µM (THP-1 cells [1]; Homo sapiens): 14% |
| 320 | 20 | N=C(NC(=O)c1ccc(Cl)c(Cl)c1)N1CCC(C(CO)N2CCC(c3c[nH]c4ccccc34)CC2)CC1 (stereo not drawn) [Cpd 128, 3,4-dichloro-N-[(4-{2-hydroxy-1-[4-(1H-indol-3-yl)-piperidin-1-yl]-ethyl}-piperidin-1-yl)-imino-methyl]-benzamide] |  |
| 200 | 2300 | O=C(/C=C/c1ccc(Cl)cc1)N1CCC(C(CO)N2CCC(c3ccc(Cl)cc3)CC2)CC1 (stereo not drawn) [Cpd 258, (2E)-3-(4-chloro-phenyl)-1-(4-{1-[4-(4-chloro-phenyl)-piperidin-1-yl]-2-hydroxy-ethyl}-piperidin-1-yl)-propenone] |  |
| 70 | 20 | O=C(C=Cc1cc(F)c(F)c(F)c1)N1CCC(C(CO)N2CCC(c3ccc(Cl)cc3)CC2)CC1 (stereo not drawn) [Cpd 246, (2E)-1-(4-{1-[4-(4-chloro-phenyl)-piperidin-1-yl]-2-hydroxy-ethyl}-piperidin-1-yl)-3-(3,4,5-trifluoro-phenyl)-propenone] |  |
|  | 90 | CC(=O)NCC(C1CCN(C(=O)/C=C/c2cc(F)c(F)c(F)c2)CC1)N1CCC(c2c[nH]c3ccccc23)CC1 (stereo not drawn) [Cpd 213, N-(2-[4-(1H-indol-3-yl)-piperidin-1-yl]-2-{1-[(2E)-3-(3,4,5-trifluoro-phenyl)-acryloyl]-piperidin-4-yl}-ethyl)-acetamide] | IC50 (THP-1 cells [2]; [4]): 170 nM |
|  |  | NC(=O)C(C1CCN(C(=O)/C=C/c2cc(F)c(F)c(F)c2)CC1)N1CCC(c2c[nH]c3ncccc23)CC1 (stereo not drawn) [Cpd 227, 2-[4-(1H-pyrrolo[2,3-b]pyridin-3-yl)-piperidin-1-yl]-2-{1-[(2E)-3-(3,4,5-trifluoro-phenyl)-acryloyl]-piperidin-4-yl}-acetamide] | IC50 (CCR2; Inhibition of MCP-1 Binding IC50, 125I labeled MCP-1 binding to CCR2, THP-1 cells): 960 nM; IC50 (THP-1 cells [1]; [5]): 870 nM |
|  | 8 | O=C(/C=C/c1cccc(C(F)(F)F)c1)N1CCC(C(CO)N2CCC(c3c[nH]c4ccccc34)CC2)CC1 (stereo not drawn) [Cpd 119, (2E)-1-(4-{2-hydroxy-1-[4-(1H-indol-3-yl)-piperidin-1-yl]-ethyl}-piperidin-1-yl)-3-(3-trifluoromethyl-phenyl)-propenone] | IC50 (THP-1 cells [2]; [4]): 10 nM |
|  |  | COc1ccc(C2CCN(C(CO)C3CCN(C(=O)C#Cc4cc(F)c(F)c(F)c4)CC3)CC2)cc1 (stereo not drawn) [Cpd 253, 1-(4-{2-hydroxy-1-[4-(4-methoxy-phenyl)-piperidin-1-yl]-ethyl}-piperidin-1-yl)-3-(3,4,5-trifluoro-phenyl)-propynone] | Inhibition of MCP-1 Binding, percent inhibition (CCR2): 42%; IC50 (THP-1 cells [1]; [6]): 3900 nM |
| 440 | 960 | O=CNCC(C1CCN(C(=O)/C=C/c2cc(F)c(F)c(F)c2)CC1)N1CCC(c2c[nH]c3ccccc23)CC1 (stereo not drawn) [Cpd 220] |  |
| 340 |  | CC(=O)NCC(C1CCN(C(=O)/C=C/c2ccsc2)CC1)N1CCC(c2c[nH]c3ccccc23)CC1 (stereo not drawn) [Cpd 219] | inhibition at 25 µM (THP-1 cells [1]; Homo sapiens): 52% |
|  | 410 | O=C(O)C(C1CCN(C(=O)Nc2ccc(Cl)cc2)CC1)N1CCC(c2c[nH]c3ccccc23)CC1 (stereo not drawn) [Cpd 88, [1-(4-chloro-phenylcarbamoyl)-piperidin-4-yl]-[4-(1H-indol-3-yl)-piperidin-1-yl]-acetic acid] | IC50 (THP-1 cells [2]; [4]): 240 nM |
|  |  | COc1ccc2c(C3CCN(C(CO)C4CCN(C(=O)/C=C/c5cc(F)c(F)c(F)c5)CC4)CC3)c[nH]c2c1 (stereo not drawn) [Cpd 167, (2E)-1-(4-{2-hydroxy-1-[4-(6-methoxy-1H-indol-3-yl)-piperidin-1-yl]-ethyl}-piperidin-1-yl)-3-(3,4,5-trifluoro-phenyl)-propenone] | IC50 (THP-1 cells [2]; [7]): 30 nM; IC50 (THP-1 cells [1]; [6]): 30 nM |
|  |  | COc1ccc2c(C3CCN(C(CO)C4CCN(C(=O)/C=C/c5cc(F)c(F)c(F)c5)CC4)CC3)c[nH]c2c1 (stereo not drawn) [Cpd 132, (2E)-1-(4-{2-hydroxy-1-[4-(6-methoxy-1H-indol-3-yl)-piperidin-1-yl]-ethyl}-piperidin-1-yl)-3-(3,4,5-trifluoro-phenyl)-propenone] | IC50 (THP-1 cells [2]; [7]): 70 nM; IC50 (THP-1 cells [1]; [6]): 3 nM |
| 2170 | 400 | O=C(/C=C/c1ccc(Cl)c(Cl)c1)N1CCC(C(CCl)N2CCC(c3ccc(Cl)cc3)CC2)CC1 (stereo not drawn) [Cpd 245] |  |
| 40 | 0.8 | OCC(C1CCN(C(=S)Nc2ccc(Cl)c(Cl)c2)CC1)N1CCC(c2c[nH]c3ccccc23)CC1 (stereo not drawn) [Cpd 122, 4-{2-hydroxy-1-[4-(1H-indol-3-yl)-piperidin-1-yl]-ethyl}-piperidine-1-carbothioic acid (3,4-dichloro-phenyl)-amide] |  |
|  |  | O=C(/C=C/c1ccc(Cl)c(Cl)c1)N1CCC(C(CO)N2CCC(c3c[nH]c4ncccc34)CC2)CC1 (stereo not drawn) [Cpd 208, (2E)-3-(3,4-dichloro-phenyl)-1-(4-{2-hydroxy-1-[4-(1H-pyrrolo[2,3-b]pyridin-3-yl)-piperidin-1-yl]-ethyl}-piperidin-1-yl)-propenone] | IC50 (THP-1 cells [2]; Homo sapiens, THP-1, 3 h, THP-1 cells, MCP-1 0.01 μg/mL, 3 hours): 13 nM; IC50 (THP-1 cells [1]; [5]): 0.8 nM |
| 130 | 70 | OCC(C1CCN(C(=S)Nc2cc(F)cc(F)c2)CC1)N1CCC(c2c[nH]c3ccccc23)CC1 (stereo not drawn) [Cpd 124, 4-{2-hydroxy-1-[4-(1H-indol-3-yl)-piperidin-1-yl]-ethyl}-piperidine-1-carbothioic acid (3,5-difluoro-phenyl)-amide] |  |
| 80 | 1 | OCC(C1CCN(C(=S)Nc2cccc(C(F)(F)F)c2)CC1)N1CCC(c2c[nH]c3ccccc23)CC1 (stereo not drawn) [Cpd 120, 4-{2-hydroxy-1-[4-(1H-indol-3-yl)-piperidin-1-yl]-ethyl}-piperidine-1-carbothioic acid (3-trifluoromethyl-phenyl)-amide] |  |
| 660 | 1800 | CCNC(=O)NCC(C1CCN(C(=O)/C=C/c2ccc(F)c(Br)c2)CC1)N1CCC(c2c[nH]c3ccccc23)CC1 (stereo not drawn) [Cpd 233] |  |
|  |  | O=C(/C=C/c1cc(F)cc(F)c1)N1CCC(C(CO)N2CCC(c3nc4cc(Cl)c(Cl)cc4[nH]3)CC2)CC1 (stereo not drawn) [Cpd 256, (2E)-1-(4-{1-[4-(5,6-dichloro-1H-benzoimidazol-2-yl)-piperidin-1-yl]-2-hydroxy-ethyl}-piperidin-1-yl)-3-(3,5-difluoro-phenyl)-propenone] | Inhibition of MCP-1 Binding, percent inhibition (CCR2): 25%; IC50 (THP-1 cells [1]; [6]): 11000 nM |

| Compound | IC50 (CCR2) [nM] | IC50 (THP-1 cells [1]; [3]) [nM] | also measured |
| --- | --- | --- | --- |
| Cc1ccc(NC(=O)N2CCC(C(C(=O)O)N3CCC(c4c[nH]c5ccccc45)CC3)CC2)cc1C (stereo not drawn) [Cpd 100, [1-(3,4-dimethyl-phenylcarbamoyl)-piperidin-4-yl]-[4-(1H-indol-3-yl)-piperidin-1-yl]-acetic acid] |  | 480 | IC50 (THP-1 cells [2]; Homo sapiens, THP-1, 3 h): 940 nM |
| O=C(O)[C@@H](C1CCN(C(=O)/C=C/c2cc(F)c(F)c(F)c2)CC1)N1CCC(c2c[nH]c3ccccc23)CC1 [Cpd 14] |  | 1130 | IC50 (THP-1 cells [2]; Homo sapiens, THP-1, 3 h): 70 nM |
| COC(=O)C(C1CCN(C(=O)/C=C/c2cc(F)c(F)c(F)c2)CC1)N1CCC(c2c[nH]c3ccccc23)CC1 (stereo not drawn) [Cpd 87, [4-(1H-indol-3-yl)-piperidin-1-yl]-{1-[(2E)-3-(3,4,5-trifluoro-phenyl)-acryloyl]-piperidin-4-yl}-acetic acid methyl ester] |  | 360 | IC50 (THP-1 cells [2]; Homo sapiens, THP-1, 3 h): 1000 nM |
